Key:
Assay in all cases: In vitro competitive activity-based protein profiling (gel-based, FP-Rh or HT-01 probe)
Format in all cases: biochemical
PLA2G7 = target: T1, PLA2G7 (Mus musculus, UniProt Q60963); conditions: for inhibition at 1 µM: 1 μM inhibitor, read-out: % Inhibition at 1 μM, D = PLA2G7; for inhibition at 1 µM / inhibition at 10 µM: gel-based competitive ABPP; for inhibition at 10 µM: 10 μM inhibitor, read-out: % Inhibition at 10 μM, D = PLA2G7
T1 construct: Proteomes (mouse brain membrane fraction or cell lysates); from tissue; host or cells: mouse brain membrane fraction (or cell lysates, not specified)
T1 sequence (Q60963 22-440): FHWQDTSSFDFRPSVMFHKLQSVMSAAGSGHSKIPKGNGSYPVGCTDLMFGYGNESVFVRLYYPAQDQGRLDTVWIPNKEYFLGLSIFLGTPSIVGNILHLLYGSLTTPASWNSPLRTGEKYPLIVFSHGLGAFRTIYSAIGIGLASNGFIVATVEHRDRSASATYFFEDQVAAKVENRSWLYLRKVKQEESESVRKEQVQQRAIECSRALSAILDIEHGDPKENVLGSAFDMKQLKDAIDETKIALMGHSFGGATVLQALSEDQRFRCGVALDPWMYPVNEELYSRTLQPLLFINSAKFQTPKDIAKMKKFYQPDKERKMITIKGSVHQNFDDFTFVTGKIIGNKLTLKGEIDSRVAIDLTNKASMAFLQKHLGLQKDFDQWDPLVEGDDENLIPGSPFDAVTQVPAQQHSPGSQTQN
In short: (§1)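 Mouse brain membrane or cell lysate proteomes (1.0 mg/mL) preincubated with inhibitors 30 min at 37° C, then labelled with FP-Rh or HT-01 for 30 min at 37° C. After SDS-PAGE, activity quantified from fluorescent band intensity.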

MAGL = target: T2, MAGL (Mus musculus, UniProt O35678); conditions: for inhibition at 1 µM: 1 μM inhibitor; for inhibition at 1 µM / inhibition at 10 µM: gel-based competitive ABPP; for inhibition at 10 µM: 10 μM inhibitor
T2 construct: Proteomes (mouse brain membrane fraction or cell lysates); from tissue; host or cells: mouse brain membrane fraction (or cell lysates, not specified)
T2 sequence (O35678 1-303): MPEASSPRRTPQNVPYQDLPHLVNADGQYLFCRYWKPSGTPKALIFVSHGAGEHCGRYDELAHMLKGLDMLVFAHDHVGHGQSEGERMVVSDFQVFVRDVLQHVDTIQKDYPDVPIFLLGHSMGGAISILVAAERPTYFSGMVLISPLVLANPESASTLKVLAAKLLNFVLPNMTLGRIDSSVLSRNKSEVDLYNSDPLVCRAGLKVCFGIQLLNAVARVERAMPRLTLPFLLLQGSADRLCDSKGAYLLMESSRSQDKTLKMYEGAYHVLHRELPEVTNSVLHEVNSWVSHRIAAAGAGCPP
In short: as §1

FAAH = target: T3, FAAH (Mus musculus, UniProt O08914); conditions: for inhibition at 1 µM: 1 μM inhibitor, read-out: % Inhibition at 1 μM, B = FAAH; for inhibition at 1 µM / inhibition at 10 µM: gel-based competitive ABPP; for inhibition at 10 µM: 10 μM inhibitor, read-out: % Inhibition at 10 μM, B = FAAH
T3 construct: Proteomes (mouse brain membrane fraction or cell lysates); from tissue; host or cells: mouse brain membrane fraction (or cell lysates, not specified)
T3 sequence (O08914 1-579): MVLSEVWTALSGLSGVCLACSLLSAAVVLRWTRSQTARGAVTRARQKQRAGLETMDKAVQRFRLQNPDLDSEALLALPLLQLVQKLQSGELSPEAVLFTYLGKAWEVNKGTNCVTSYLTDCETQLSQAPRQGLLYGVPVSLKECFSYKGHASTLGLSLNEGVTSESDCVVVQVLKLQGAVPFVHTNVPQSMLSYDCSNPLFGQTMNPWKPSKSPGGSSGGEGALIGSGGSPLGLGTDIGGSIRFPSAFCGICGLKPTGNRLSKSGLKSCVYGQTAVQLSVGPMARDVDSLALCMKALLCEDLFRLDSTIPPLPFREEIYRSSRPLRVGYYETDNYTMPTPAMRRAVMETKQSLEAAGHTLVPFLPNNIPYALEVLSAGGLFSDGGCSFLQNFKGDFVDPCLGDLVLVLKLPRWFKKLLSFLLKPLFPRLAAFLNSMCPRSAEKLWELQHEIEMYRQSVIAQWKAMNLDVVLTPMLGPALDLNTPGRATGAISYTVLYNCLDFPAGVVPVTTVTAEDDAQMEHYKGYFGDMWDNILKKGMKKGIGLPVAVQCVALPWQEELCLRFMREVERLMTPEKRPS
In short: as §1

ABHD6 = target: T4, ABHD6 (Mus musculus, UniProt Q8R2Y0); conditions: for inhibition at 1 µM: 1 μM inhibitor, read-out: % Inhibition at 1 μM, C = ABHD6; for inhibition at 1 µM / inhibition at 10 µM: gel-based competitive ABPP; for inhibition at 10 µM: 10 μM inhibitor, read-out: % Inhibition at 10 μM, C = ABHD6
T4 construct: Proteomes (mouse brain membrane fraction or cell lysates); from tissue; host or cells: mouse brain membrane fraction (or cell lysates, not specified)
T4 sequence (Q8R2Y0 1-336): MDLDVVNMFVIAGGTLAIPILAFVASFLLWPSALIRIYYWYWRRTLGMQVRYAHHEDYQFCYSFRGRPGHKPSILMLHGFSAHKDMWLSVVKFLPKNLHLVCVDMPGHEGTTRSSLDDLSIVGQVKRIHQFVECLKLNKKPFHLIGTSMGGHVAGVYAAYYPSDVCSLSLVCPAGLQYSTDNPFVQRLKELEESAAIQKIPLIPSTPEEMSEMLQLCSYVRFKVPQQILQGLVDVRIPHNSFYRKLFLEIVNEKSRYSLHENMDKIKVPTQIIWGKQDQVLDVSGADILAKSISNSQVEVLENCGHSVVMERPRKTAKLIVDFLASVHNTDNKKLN
In short: as §1

| SMILES | inhibition at 1 µM (PLA2G7) [%] | inhibition at 10 µM (PLA2G7) [%] | inhibition at 1 µM (MAGL) [%] | inhibition at 10 µM (MAGL) [%] | inhibition at 1 µM (FAAH) [%] | inhibition at 10 µM (FAAH) [%] | inhibition at 1 µM (ABHD6) [%] | inhibition at 10 µM (ABHD6) [%] | IC50 (PLA2G7; mouse brain membrane fraction or cell lysates, 30 min preincubation at 37° C.) [nM] | IC50 (MAGL; mouse brain membrane fraction or cell lysates, 30 min preincubation at 37° C., read-out: Mouse (IC50 value, nM) MAGL) [nM] | IC50 (FAAH; mouse brain membrane fraction or cell lysates, 30 min preincubation at 37° C., read-out: Mouse (IC50 value, nM) FAAH) [nM] | IC50 (ABHD6; mouse brain membrane fraction or cell lysates, 30 min preincubation at 37° C., read-out: Mouse (IC50 value, nM) ABHD6) [nM] |
| --- | --- | --- | --- | --- | --- | --- | --- | --- | --- | --- | --- | --- |
| COc1cc(-c2ccccc2)ccc1CN1CCN(C(=O)n2cc(C(=O)N3CCCC3)cn2)CC1 [Example 290, (4-((3-Methoxybiphenyl-4-yl)methyl)piperazin-1-yl)(4-(pyrrolidine-1-carbonyl)-1H-pyrazol-1-yl)methanone] | < 25 | > 75 | > 75 | > 75 | > 75 | > 75 | > 75 | > 75 | – | – | – | – |
| O=C(c1cnn(C(=O)N2CCN(Cc3ccc(-c4ccccc4)cc3OCc3ccccc3)CC2)c1)N1CCCC1 [Example 291, (4-((3-(Benzyloxy)biphenyl-4-yl)methyl)piperazin-1-yl)(4-(pyrrolidine-1-carbonyl)-1H-pyrazol-1-yl)methanone] | < 25 | 25 to 75 | > 75 | > 75 | > 75 | > 75 | > 75 | > 75 | – | – | – | – |
| N#Cc1cnn(C(=O)N2CCCCCC2)c1 [Example 292, 1-(Azepane-1-carbonyl)-1H-pyrazole-4-carbonitrile] | < 25 | > 75 | 25 to 75 | > 75 | > 75 | > 75 | 25 to 75 | > 75 | > 1000 | > 1000 | 100 to 1000 | > 1000 |
| Cc1cnn(C(=O)NCc2ccc(OCc3ccccc3)cc2)c1 [Example 293, N-(4-(Benzyloxy)benzyl)-4-methyl-1H-pyrazole-1-carboxamide] | < 25 | – | < 25 | – | < 25 | – | < 25 | – | – | – | – | – |
| Cc1cnn(C(=O)N2CCN(Cc3cccc(Oc4ccccc4)c3)CC2)c1 [Example 294, (4-Methyl-1H-pyrazol-1-yl)(4-(3-phenoxybenzyl)piperazin-1-yl)methanone] | < 25 | – | > 75 | – | > 75 | – | > 75 | – | – | – | – | – |
| N#Cc1cnn(C(=O)N2CCN(Cc3cccc(Oc4ccccc4)c3)CC2)c1 [Example 295, 1-(4-(3-Phenoxybenzyl)piperazine-1-carbonyl)-1H-pyrazole-4-carbonitrile] | < 25 | – | > 75 | – | > 75 | – | > 75 | – | – | – | – | – |
| O=C(N1CCN(Cc2cccc(OCc3ccccc3)c2)CC1)n1cccn1 [Example 296, (4-(3-(Benzyloxy)benzyl)piperazin-1-yl)(1H-pyrazol-1-yl)methanone] | < 25 | – | > 75 | – | > 75 | – | > 75 | – | – | – | – | – |
| Cc1cnn(C(=O)N2CCN(Cc3cccc(OCc4ccccc4)c3)CC2)c1 [Example 297, (4-(3-(Benzyloxy)benzyl)piperazin-1-yl)(4-methyl-1H-pyrazol-1-yl)methanone] | < 25 | – | > 75 | – | > 75 | – | > 75 | – | – | – | – | – |
| Cc1cnn(C(=O)N2CCCN(Cc3cccc(Oc4ccccc4)c3)CC2)c1 [Example 298, (4-Methyl-1H-pyrazol-1-yl)(4-(3-phenoxybenzyl)-1,4-diazepan-1-yl)methanone] | < 25 | – | > 75 | – | < 25 | – | < 25 | – | – | – | – | – |

Second part, the compound after the results:

| inhibition at 1 µM (PLA2G7) [%] | inhibition at 10 µM (PLA2G7) [%] | inhibition at 1 µM (MAGL) [%] | inhibition at 10 µM (MAGL) [%] | inhibition at 1 µM (FAAH) [%] | inhibition at 10 µM (FAAH) [%] | inhibition at 1 µM (ABHD6) [%] | inhibition at 10 µM (ABHD6) [%] | IC50 (PLA2G7; mouse brain membrane fraction or cell lysates, 30 min preincubation at 37° C.) [nM] | IC50 (MAGL; mouse brain membrane fraction or cell lysates, 30 min preincubation at 37° C., read-out: Mouse (IC50 value, nM) MAGL) [nM] | IC50 (FAAH; mouse brain membrane fraction or cell lysates, 30 min preincubation at 37° C., read-out: Mouse (IC50 value, nM) FAAH) [nM] | IC50 (ABHD6; mouse brain membrane fraction or cell lysates, 30 min preincubation at 37° C., read-out: Mouse (IC50 value, nM) ABHD6) [nM] | SMILES |
| --- | --- | --- | --- | --- | --- | --- | --- | --- | --- | --- | --- | --- |
| < 25 | – | > 75 | – | > 75 | – | > 75 | – | – | – | – | – | N#Cc1cnn(C(=O)N2CCCN(Cc3cccc(Oc4ccccc4)c3)CC2)c1 [Example 299, 1-(4-(3-Phenoxybenzyl)-1,4-diazepane-1-carbonyl)-1H-pyrazole-4-carbonitrile] |
| < 25 | – | > 75 | – | > 75 | – | > 75 | – | – | – | – | – | N#Cc1cnn(C(=O)N2CCCN(Cc3cccc(OCc4ccccc4)c3)CC2)c1 [Example 300, 1-(4-(3-(Benzyloxy)benzyl)-1,4-diazepane-1-carbonyl)-1H-pyrazole-4-carbonitrile] |
| < 25 | – | > 75 | – | > 75 | – | > 75 | – | – | – | – | – | N#Cc1cnn(C(=O)N2CCCN(Cc3ccc(Oc4ccccc4)cc3)CC2)c1 [Example 301, 1-(4-(4-Phenoxybenzyl)-1,4-diazepane-1-carbonyl)-1H-pyrazole-4-carbonitrile] |
| < 25 | – | 25 to 75 | – | < 25 | – | < 25 | – | – | – | – | – | Cc1cnn(C(=O)N2CCCN(Cc3ccc(OCc4ccccc4)cc3)CC2)c1 [Example 302, (4-(4-(Benzyloxy)benzyl)-1,4-diazepan-1-yl)(4-methyl-1H-pyrazol-1-yl)methanone] |
| < 25 | – | > 75 | – | > 75 | – | < 25 | – | – | – | – | – | N#Cc1cnn(C(=O)N2CCCN(Cc3ccc(OCc4ccccc4)cc3)CC2)c1 [Example 303, 1-(4-(4-(Benzyloxy)benzyl)-1,4-diazepane-1-carbonyl)-1H-pyrazole-4-carbonitrile] |
